Test results as given in PubChem BioAssay AID2060510 (Molecular Pharmacology Branch, DTP, NCI, 2025).

System: 439559-082-T-J2-PDC spheroids viability
Test: Anticancer human tumor 439559-082-T-J2-PDC patient-derived colon adenocarcinoma cell line growth inhibition [GQUAD]
Settings: for IC50: curve of first compound; for viability, T/C: stronger effect = lower value
Outline: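 Multi-cell-type spheroids of tumor cells with HUVEC and mesenchymal stem cells, treated with drug combinations. Concentrations descend in half-log steps from near clinical Cmax, or from 10 microM where Cmax is unknown; viability read-out.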

[1] = second compound 0.0316 µM, first compound 0.0316 µM
[2] = second compound 0.0316 µM, first compound 0.316 µM
[3] = second compound 0.1 µM, first compound 0.0316 µM
[4] = second compound 0.1 µM, first compound 0.316 µM
[5] = second compound 0.316 µM, first compound 0.0316 µM
[6] = second compound 0.316 µM, first compound 0.316 µM
[7] = second compound 1 µM, first compound 0.0316 µM
[8] = second compound 1 µM, first compound 0.316 µM
[9] = second compound 3.16 µM, first compound 0.0316 µM
[10] = second compound 3.16 µM, first compound 0.316 µM
[11] = second compound 10 µM, first compound 0.0316 µM
[12] = second compound 10 µM, first compound 0.316 µM
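Further: spheroids exposed to the agents for 7 days before readout.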
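Wherever viability, T/C is given: percent of luminescence signal in DMSO vehicle wells taken as 100% viability.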

Compound: Cc1[nH]c2ccccc2c1CCNCc1ccc(/C=C/C(=O)NO)cc1 + CN(C)c1ccc(Nc2c3ccc(NC(=O)CCN4CCCC4)cc3nc3cc(NC(=O)CCN4CCCC4)ccc23)cc1
- IC50 (second compound 0.0316 µM): > 316 nM
- IC50 (second compound 0.1 µM): > 316 nM
- IC50 (second compound 0.316 µM): > 316 nM
- IC50 (second compound 1 µM): > 316 nM
- IC50 (second compound 3.16 µM): > 316 nM
- IC50 (second compound 10 µM): > 316 nM
- viability, T/C (second compound 0.0316 µM, first compound 0.000999 µM): 105%
- viability, T/C (second compound 0.0316 µM, first compound 0.00316 µM): 86.9%
- viability, T/C (second compound 0.0316 µM, first compound 0.00999 µM): 91.8%
- viability, T/C [1]: 87.3%
- viability, T/C (second compound 0.0316 µM, first compound 0.0999 µM): 84.7%
- viability, T/C [2]: 63.6%
- viability, T/C (second compound 0.1 µM, first compound 0.000999 µM): 110%
- viability, T/C (second compound 0.1 µM, first compound 0.00316 µM): 102%
- viability, T/C (second compound 0.1 µM, first compound 0.00999 µM): 101%
- viability, T/C [3]: 83.9%
- viability, T/C (second compound 0.1 µM, first compound 0.0999 µM): 83.8%
- viability, T/C [4]: 60.9%
- viability, T/C (second compound 0.316 µM, first compound 0.000999 µM): 93.6%
- viability, T/C (second compound 0.316 µM, first compound 0.00316 µM): 91.3%
- viability, T/C (second compound 0.316 µM, first compound 0.00999 µM): 85.5%
- viability, T/C [5]: 76.4%
- viability, T/C (second compound 0.316 µM, first compound 0.0999 µM): 80%
- viability, T/C [6]: 62.3%
- viability, T/C (second compound 1 µM, first compound 0.000999 µM): 99.1%
- viability, T/C (second compound 1 µM, first compound 0.00316 µM): 99.1%
- viability, T/C (second compound 1 µM, first compound 0.00999 µM): 99.9%
- viability, T/C [7]: 86.9%
- viability, T/C (second compound 1 µM, first compound 0.0999 µM): 78.5%
- viability, T/C [8]: 64.1%
- viability, T/C (second compound 3.16 µM, first compound 0.000999 µM): 93.8%
- viability, T/C (second compound 3.16 µM, first compound 0.00316 µM): 89.4%
- viability, T/C (second compound 3.16 µM, first compound 0.00999 µM): 88.5%
- viability, T/C [9]: 79.2%
- viability, T/C (second compound 3.16 µM, first compound 0.0999 µM): 75.3%
- viability, T/C [10]: 60.8%
- viability, T/C (second compound 10 µM, first compound 0.000999 µM): 96.1%
- viability, T/C (second compound 10 µM, first compound 0.00316 µM): 95.7%
- viability, T/C (second compound 10 µM, first compound 0.00999 µM): 97.9%
- viability, T/C [11]: 84.7%
- viability, T/C (second compound 10 µM, first compound 0.0999 µM): 83%
- viability, T/C [12]: 68.9%

Compound: O=C(NO)c1cnc(N2CCN(S(=O)(=O)c3ccc4ccccc4c3)CC2)nc1 + CN(C)c1ccc(Nc2c3ccc(NC(=O)CCN4CCCC4)cc3nc3cc(NC(=O)CCN4CCCC4)ccc23)cc1
- IC50 (second compound 0.0316 µM): 445 nM
- IC50 (second compound 0.1 µM): 393 nM
- IC50 (second compound 0.316 µM): 334 nM
- IC50 (second compound 1 µM): 406 nM
- IC50 (second compound 3.16 µM): 402 nM
- IC50 (second compound 10 µM): 365 nM
- viability, T/C [1]: 96.5%
- viability, T/C (second compound 0.0316 µM, first compound 0.1 µM): 83.4%
- viability, T/C [2]: 69.9%
- viability, T/C (second compound 0.0316 µM, first compound 1 µM): 2.76%
- viability, T/C (second compound 0.0316 µM, first compound 3.16 µM): 0.18%
- viability, T/C (second compound 0.0316 µM, first compound 10 µM): 0.23%
- viability, T/C [3]: 99.8%
- viability, T/C (second compound 0.1 µM, first compound 0.1 µM): 85.2%
- viability, T/C [4]: 61.5%
- viability, T/C (second compound 0.1 µM, first compound 1 µM): 5.02%
- viability, T/C (second compound 0.1 µM, first compound 3.16 µM): 0.16%
- viability, T/C (second compound 0.1 µM, first compound 10 µM): 0.17%
- viability, T/C [5]: 98.3%
- viability, T/C (second compound 0.316 µM, first compound 0.1 µM): 82%
- viability, T/C [6]: 54.6%
- viability, T/C (second compound 0.316 µM, first compound 1 µM): 3.28%
- viability, T/C (second compound 0.316 µM, first compound 3.16 µM): 0.16%
- viability, T/C (second compound 0.316 µM, first compound 10 µM): 0.13%
- viability, T/C [7]: 83.1%
- viability, T/C (second compound 1 µM, first compound 0.1 µM): 87.2%
- viability, T/C [8]: 62.5%
- viability, T/C (second compound 1 µM, first compound 1 µM): 4.71%
- viability, T/C (second compound 1 µM, first compound 3.16 µM): 0.12%
- viability, T/C (second compound 1 µM, first compound 10 µM): 0.19%
- viability, T/C [9]: 88.2%
- viability, T/C (second compound 3.16 µM, first compound 0.1 µM): 85.2%
- viability, T/C [10]: 62.5%
- viability, T/C (second compound 3.16 µM, first compound 1 µM): 2.43%
- viability, T/C (second compound 3.16 µM, first compound 3.16 µM): 0.12%
- viability, T/C (second compound 3.16 µM, first compound 10 µM): 0.2%
- viability, T/C [11]: 98.5%
- viability, T/C (second compound 10 µM, first compound 0.1 µM): 80.9%
- viability, T/C [12]: 58.5%
- viability, T/C (second compound 10 µM, first compound 1 µM): 5.85%
- viability, T/C (second compound 10 µM, first compound 3.16 µM): 0.23%
- viability, T/C (second compound 10 µM, first compound 10 µM): 0.19%
